According to patent US8822517B2, “Arylosulfonamides for the treatment of CNS diseases” (Adamed SP. Z O.O., priority 2010, dated 2014):

Key:
[1] = target: T1, serotoninergic 5-HT1A receptor (Homo sapiens, UniProt P08908); test: Cellular functional assay, serotoninergic 5-HT1A receptor (agonism/antagonism); assay type: cell-based; details: for inhibition at 1 µM: CHO, read-out: 5-HT1A-antag. [%]; for activation at 1 µM: agonist effect, percent of control specific agonist response (100 nM 8-OH-DPAT for control), 1×10^−6 M, 5-HT1A (h), CHO cells, read-out: 5-HT1A-ag [%]
T1 sequence (P08908 1-422): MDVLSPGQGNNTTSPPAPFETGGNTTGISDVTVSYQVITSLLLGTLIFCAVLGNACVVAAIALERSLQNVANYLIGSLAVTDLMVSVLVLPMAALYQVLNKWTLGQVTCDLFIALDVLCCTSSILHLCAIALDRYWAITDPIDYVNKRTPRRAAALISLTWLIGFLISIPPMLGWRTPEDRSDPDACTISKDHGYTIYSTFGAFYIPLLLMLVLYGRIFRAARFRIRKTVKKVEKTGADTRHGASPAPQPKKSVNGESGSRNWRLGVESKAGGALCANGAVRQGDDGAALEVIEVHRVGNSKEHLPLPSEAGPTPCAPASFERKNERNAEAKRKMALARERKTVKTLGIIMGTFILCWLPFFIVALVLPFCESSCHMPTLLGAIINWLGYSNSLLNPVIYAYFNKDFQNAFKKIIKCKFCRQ
Protocol: The compounds were tested at the concentration of 1×10^−6M.
In the Tables ag refers to agonism, and antag to antagonism).

[2] = target: T1, serotoninergic 5-HT1A receptor; test: Binding assay 5-HT1A (h), [3H]8-OH-DPAT, HEK-293 cells; design: expressed in transfected cells; host or cells: HEK-293 cells; details: read-out: 5-HT1A
Summary of the method: (§1)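 Tested at 1×10^−6 M. Specific binding: total minus binding remaining with excess cold ligand. Detection: scintillation counting.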

[3] = target: serotoninergic 5-HT2A receptor (Homo sapiens, UniProt P28223); test: Binding assay 5-HT2A (h), [3H]ketanserin, HEK-293 cells; design: expressed in transfected cells; host or cells: HEK-293 cells; details: read-out: 5-HT2A
Sequence of serotoninergic 5-HT2A receptor (P28223 whole entry): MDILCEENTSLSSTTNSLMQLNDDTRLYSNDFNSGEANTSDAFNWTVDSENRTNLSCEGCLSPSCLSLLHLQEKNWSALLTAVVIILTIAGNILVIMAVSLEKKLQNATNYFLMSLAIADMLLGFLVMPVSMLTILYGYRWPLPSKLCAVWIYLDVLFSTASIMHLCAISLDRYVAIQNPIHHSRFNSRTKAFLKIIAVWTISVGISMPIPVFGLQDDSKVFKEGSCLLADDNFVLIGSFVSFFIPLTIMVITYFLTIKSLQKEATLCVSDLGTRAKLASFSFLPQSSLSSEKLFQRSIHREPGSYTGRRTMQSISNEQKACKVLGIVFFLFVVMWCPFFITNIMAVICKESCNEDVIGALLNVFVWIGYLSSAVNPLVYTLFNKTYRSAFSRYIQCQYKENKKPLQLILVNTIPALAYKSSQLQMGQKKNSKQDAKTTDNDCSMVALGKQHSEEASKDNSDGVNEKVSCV
Summary of the method: as §1

[4] = target: T2, serotoninergic receptor 5-HT2C (Homo sapiens, UniProt P28335); test: Binding assay 5-HT2C (h), [3H]mesulergine, HEK-293 cells; details: read-out: 5-HT2C [%]
T2 construct: expressed in transfected cells; host or cells: HEK-293 cells
T2 sequence (P28335 33-458): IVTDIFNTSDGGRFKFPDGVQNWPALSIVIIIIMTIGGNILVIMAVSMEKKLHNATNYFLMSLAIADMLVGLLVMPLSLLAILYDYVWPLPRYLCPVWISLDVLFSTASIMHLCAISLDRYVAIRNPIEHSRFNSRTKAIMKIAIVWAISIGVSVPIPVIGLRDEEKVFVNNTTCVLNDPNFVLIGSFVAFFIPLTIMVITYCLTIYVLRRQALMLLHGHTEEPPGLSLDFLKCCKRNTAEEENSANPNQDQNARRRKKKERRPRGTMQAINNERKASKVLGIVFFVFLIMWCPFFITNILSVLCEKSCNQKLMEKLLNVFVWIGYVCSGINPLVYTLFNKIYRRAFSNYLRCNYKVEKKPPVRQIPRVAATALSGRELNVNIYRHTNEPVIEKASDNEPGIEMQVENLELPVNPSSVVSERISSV
Summary of the method: as §1

adrenergic α1A receptor = target: T3, adrenergic α1A receptor (Homo sapiens, UniProt P35348); test: Cellular functional assay, adrenergic α1A receptor (agonism/antagonism); assay type: cell-based; details: for activation at 1 µM: agonist effect, percent of control specific agonist response, compounds tested at 1×10^−6M, read-out: α1A -ag [%]; for inhibition at 1 µM: read-out: α1A -antag. [%]
T3 sequence (P35348 1-466): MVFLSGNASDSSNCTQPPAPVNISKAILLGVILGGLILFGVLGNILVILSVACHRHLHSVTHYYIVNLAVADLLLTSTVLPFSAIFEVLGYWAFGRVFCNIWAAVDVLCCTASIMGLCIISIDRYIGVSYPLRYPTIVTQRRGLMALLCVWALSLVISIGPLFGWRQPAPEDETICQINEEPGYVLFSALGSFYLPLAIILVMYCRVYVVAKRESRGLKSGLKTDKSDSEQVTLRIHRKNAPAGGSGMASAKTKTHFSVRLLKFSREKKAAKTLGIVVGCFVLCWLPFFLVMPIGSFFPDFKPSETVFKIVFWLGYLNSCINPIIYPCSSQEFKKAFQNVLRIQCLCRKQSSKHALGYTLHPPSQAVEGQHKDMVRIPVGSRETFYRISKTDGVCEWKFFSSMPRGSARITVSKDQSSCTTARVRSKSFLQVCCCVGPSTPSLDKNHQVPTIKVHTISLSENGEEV
Protocol: […]. The compounds were tested at the concentration of 1×10^−6M.
Conditions and methodology (by reference to the literature) of cellular functional assays are given in Table 13 and the tests results for representative compounds are given in Table 14 (dopaminergic receptor D2), in Table 15 (dopaminergic receptor D3), in Table 16 (serotoninergic receptor 5-HT1A), in Table 17 (serotoninergic receptor 5-HT2A), in Table 18 (serotoninergic receptor 5-HT6), in Table 19 (serotoninergic receptor 5-HT7), in Table 20 (adrenergic α1 receptor), in Table 21 (adrenergic α2C receptor), in Table 22 (histaminergic H1 receptor) and in Table 23 (serotoninergic 5-HT2C receptor). In the Tables ag refers to agonism, and antag to antagonism).

| Structure (SMILES) | inhibition at 1 µM [1] [%] | activation at 1 µM [1] [%] | inhibition at 1 µM [2] [%] | inhibition at 1 µM [3] [%] | inhibition at 1 µM [4] [%] | activation at 1 µM (adrenergic α1A receptor) [%] | inhibition at 1 µM (adrenergic α1A receptor) [%] |
| --- | --- | --- | --- | --- | --- | --- | --- |
| O=c1[nH]c2ccc(S(=O)(=O)NCCCN3CCN(c4nsc5ccccc45)CC3)cc2o1 [Compound 8, N-(3-(4-(1,2-Benzothiazol-3-yl)piperazin-1-yl)propyl)-2-oxo-3H-1,3-benzoxazole-6-sulphonamide] | 81 | 14 | 100 | 100 | 90 | 0 | 100 |
| O=S(=O)(NCCCCN1CCN(c2noc3ccccc23)CC1)c1cccc2ccccc12 [Compound 13, N-(4-(4-(1,2-Benzoxazol-3-yl)piperazin-1-yl)butyl)naphthalene-1-sulphonamide] | – | – | 89 | 100 | 34 | 0 | 100 |
| O=c1[nH]c2ccc(S(=O)(=O)NCCCCN3CCN(c4noc5ccccc45)CC3)cc2o1 [Compound 16, N-(4-(4-(1,2-Benzoxazol-3-yl)piperazin-1-yl)butyl)-2-oxo-3H-1,3-benzoxazole-6-sulphonamide] | 91 | -14 | 93 | 100 | 53 | 0 | 100 |
| O=S(=O)(NCCCCN1CCN(c2cccc3[nH]ccc23)CC1)c1ccc2ccccc2c1 [Compound 26, N-{4-[4-(1H-Indol-4-yl)piperazin-1-yl]butyl}naphthalene-2-sulphonamide] | 22 | 67 | 100 | 98 | 19 | 0 | 100 |
| O=S(=O)(NCCCCN1CCN(c2cccc3[nH]ccc23)CC1)c1ccccc1 [Compound 27, N-{4-[4-(1H-Indol-4-yl)piperazin-1-yl]butyl}benzenesulphonamide] | 48 | 56 | 99 | 62 | -1 | 1 | 100 |
| O=S(=O)(NCCCCN1CCN(c2cccc3[nH]ccc23)CC1)c1cccc(F)c1 [Compound 28, 3-Fluoro-N-{4-[4-(1H-indol-4-yl)piperazin-1-yl]butyl}benzenesulphonamide] | 27 | 63 | 100 | 89 | 6 | – | – |
| O=S(=O)(NCCCCN1CCN(c2noc3ccccc23)CC1)c1ccc2cc(Cl)ccc2c1 [Compound 79, N-[4-[4-(1,2-Benzoxazol-3-yl)piperazin-1-yl]butyl]-6-chloro-naphthalene-2-sulphonamide] | – | – | 84 | 91 | 72 | – | – |
| O=S(=O)(NCCCCN1CCN(c2noc3ccccc23)CC1)c1c[nH]c2ncccc12 [Compound 89, N-[4-[4-(1,2-Benzoxazol-3-yl)piperazin-1-yl]butyl]-1H-pyrrolo[2,3-b]pyridine-3-sulphonamide] | – | – | 71 | 99 | 34 | -1 | 100 |
| O=S(=O)(NCCCN1CCC(c2noc3cc(F)ccc23)CC1)c1ccc2cc(Cl)ccc2c1 [Compound 98, 6-Chloro-N-[3-[4-(6-fluoro-1,2-benzoxazol-3-yl)piperidin-1-yl]propyl]naphthalene-2-sulphonamide] | – | – | 80 | 102 | 91 | 0 | 99 |
| O=S(=O)(NCCCCN1CCN(c2noc3ccccc23)CC1)c1ccc(-c2ccccc2)cc1 [Compound 283, N-[4-[4-(1,2-Benzoxazol-3-yl)piperazin-1-yl]butyl]-4-phenylbenzenesulphonamide] | – | – | 89 | 103 | 80 | 0 | 100 |
| O=S(=O)(NCCCCN1CCN(c2noc3ccccc23)CC1)c1cc2ccc(Cl)cc2s1 [Compound 288, N-[4-[4-(1,2-Benzoxazol-3-yl)piperazin-1-yl]butyl]-6-chlorobenzothiophene-2-sulphonamide] | – | – | 86 | 95 | 32 | 0 | 97 |
| O=S(=O)(NCCCCN1CCC(c2noc3cc(F)ccc23)CC1)c1ccc(Br)cc1 [Compound 298, 4-Bromo-N-[4-[4-(6-fluoro-1,2-benzoxazol-3-yl)piperidin-1-yl]butyl]benzenesulphonamide] | – | – | 67 | 100 | 52 | 1 | 100 |
| O=S(=O)(NCCCCN1CCC(c2noc3cc(F)ccc23)CC1)c1cc2ccccc2s1 [Compound 312, N-[4-[4-(6-Fluoro-1,2-benzoxazol-3-yl)piperidin-1-yl]butyl]benzothiophene-2-sulphonamide] | – | – | 86 | 99 | 80 | 0 | 100 |
| O=S(=O)(NCCCCN1CCC(c2noc3cc(F)ccc23)CC1)c1csc2ccccc12 [Compound 313, N-[4-[4-(6-Fluoro-1,2-benzoxazol-3-yl)piperidin-1-yl]butyl]benzothiophene-3-sulphonamide] | – | – | 72 | 101 | 59 | 0 | 100 |
| O=S(=O)(NCCCCN1CCC(c2noc3cc(F)ccc23)CC1)c1cc2ccc(Cl)cc2s1 [Compound 314, 6-Chloro-N-[4-[4-(6-fluoro-1,2-benzoxazol-3-yl)piperidin-1-yl]butyl]benzothiophene-2-sulphonamide] | – | – | 75 | 102 | 85 | 1 | 100 |
| O=S(=O)(NCCCN1CCC(c2noc3cc(F)ccc23)CC1)c1ccc2cn[nH]c2c1 [Compound 352, N-[3-[4-(6-Fluoro-1,2-benzoxazol-3-yl)piperidin-1-yl]propyl]-1H-indazole-6-sulphonamide] | – | – | 89 | 101 | 78 | 1 | 100 |
